Active and inactive are the calls of the source. The calls are words filed in the database; no cut-off is given here.
Experiments:
[1] = Displacement of Cy5-labelled (position-4) ATP from Mycobacterium tuberculosis HSP70 expressed in Escherichia coli BL21(DE3) after 16 hrs by microarray assay
[2] = Displacement of Cy5-labelled (position-4) ATP from human HSP70 expressed in Escherichia coli BL21(DE3) after 16 hrs by microarray assay
Homo sapiens = species: Homo sapiens; assay: Binding affinity to human HSP70 expressed in Escherichia coli BL21(DE3) at 100 uM after 16 hrs microarray assay

CC[N+]1=C(/C=C/C=C/C=C2/N(CCCCCC(=O)NCCCCCCNc3ncnc4c3ncn4[C@@H]3O[C@H](COP(=O)(O)OP(=O)(O)OP(=O)(O)O)[C@@H](O)[C@H]3O)c3ccc(S(=O)(=O)O)cc3C2(C)C)C(C)(C)c2cc(S(=O)(=O)[O-])ccc21
Kd [1]: 30600 nM
EC50 [2]: 484 nM

COc1ccc(-c2c(OC)c(O)c(-c3ccc(O)cc3)c(O)c2OC)cc1
EC50 [2]: 29000 nM

CC[N+]1=C(/C=C/C=C/C=C2/N(CCCCCC(=O)NCCCCCCNc3nc4c(N)ncnc4n3[C@@H]3O[C@H](COP(=O)(O)OP(=O)(O)OP(=O)(O)O)[C@@H](O)[C@H]3O)c3ccc(S(=O)(=O)O)cc3C2(C)C)C(C)(C)c2cc(S(=O)(=O)[O-])ccc21
Kd [2]: 2300 nM

COc1ccc(-c2c(O)c(O)c(-c3ccc(OC)cc3)c(OC)c2OC)cc1
EC50 [2]: 49000 nM

CC[N+]1=C(/C=C/C=C/C=C2/N(CCCCCC(=O)NCCCCCCNP(=O)(O)OP(=O)(O)OP(=O)(O)OC[C@H]3O[C@@H](n4cnc5c(N)ncnc54)[C@H](O)[C@@H]3O)c3ccc(S(=O)(=O)O)cc3C2(C)C)C(C)(C)c2cc(S(=O)(=O)[O-])ccc21
Activity (Homo sapiens): inactive

Nc1ncnc2c1ncn2[C@@H]1O[C@H](COP(=O)(O)OP(=O)(O)OP(=O)(O)O)[C@@H](O)[C@H]1O [ADENOSINE TRIPHOSPHATE]
EC50 [1]: 1 nM
Kd [1]: 37 nM
EC50 [2]: 1 nM
Kd [2]: 37 nM

From ChEMBL document CHEMBL4177614, “Development of a microarray-based assay for efficient testing of new HSP70/DnaK inhibitors” (Bioorg Med Chem, 2017)
